Measured values from PubChem BioAssay (NCI).
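Growth conditions: 96-well plates. Treatment: test compound, 48 hours, 5 concentrations. Analysis: linear interpolation between bracketing concentrations; unreached endpoints set to highest concentration. GI50: concentration for 50% inhibition of growth. TGI is the concentration that stops growth completely.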

What was measured:
Assay in all cases: DTP human tumour cell line panel, 48 h
T-47D breast = system: T-47D breast
CCRF-CEM leukemia = system: CCRF-CEM leukemia
SF-539 CNS = system: SF-539 CNS
SR leukemia = system: SR leukemia
SK-MEL-28 melanoma = system: SK-MEL-28 melanoma
HCC-2998 colon = system: HCC-2998 colon
K-562 leukemia = system: K-562 leukemia
OVCAR-3 ovarian = system: OVCAR-3 ovarian
MCF7 breast = system: MCF7 breast
SF-268 CNS = system: SF-268 CNS
ACHN renal = system: ACHN renal
OVCAR-4 ovarian = system: OVCAR-4 ovarian
SW-620 colon = system: SW-620 colon
MALME-3M melanoma = system: MALME-3M melanoma
SK-OV-3 ovarian = system: SK-OV-3 ovarian
HT29 colon = system: HT29 colon
SN12C renal = system: SN12C renal
UACC-257 melanoma = system: UACC-257 melanoma
IGROV1 ovarian = system: IGROV1 ovarian
MDA-MB-435 = system: MDA-MB-435
HCT-116 colon = system: HCT-116 colon
DU-145 prostate = system: DU-145 prostate
RPMI-8226 leukemia = system: RPMI-8226 leukemia
EKVX NSCLC = system: EKVX NSCLC
SK-MEL-5 melanoma = system: SK-MEL-5 melanoma
HOP-62 NSCLC = system: HOP-62 NSCLC
COLO 205 colon = system: COLO 205 colon
TK-10 renal = system: TK-10 renal
OVCAR-5 ovarian = system: OVCAR-5 ovarian
HCT-15 colon = system: HCT-15 colon
NCI-H460 lung = system: NCI-H460 lung
CAKI-1 renal = system: CAKI-1 renal
HOP-92 NSCLC = system: HOP-92 NSCLC
RXF 393 renal = system: RXF 393 renal
MOLT-4 leukemia = system: MOLT-4 leukemia
SNB-19 CNS = system: SNB-19 CNS
HL-60(TB) leukemia = system: HL-60(TB) leukemia
UO-31 renal = system: UO-31 renal
MDA-MB-468 breast = system: MDA-MB-468 breast
MDA-MB-231 breast = system: MDA-MB-231 breast
LOX IMVI melanoma = system: LOX IMVI melanoma
HS 578T breast = system: HS 578T breast
NCI/ADR-RES ovarian = system: NCI/ADR-RES ovarian
BT-549 breast = system: BT-549 breast
M14 melanoma = system: M14 melanoma
A549 NSCLC = system: A549 NSCLC
786-0 renal = system: 786-0 renal
U251 CNS = system: U251 CNS
SNB-75 CNS = system: SNB-75 CNS
NCI-H226 lung = system: NCI-H226 lung
A498 renal = system: A498 renal
KM12 colon = system: KM12 colon
SF-295 CNS = system: SF-295 CNS
OVCAR-8 ovarian = system: OVCAR-8 ovarian
NCI-H522 lung = system: NCI-H522 lung
PC-3 prostate = system: PC-3 prostate
NCI-H23 lung = system: NCI-H23 lung
UACC-62 melanoma = system: UACC-62 melanoma
SK-MEL-2 melanoma = system: SK-MEL-2 melanoma

With `COc1sc(/C=N/NC(=O)c2[nH]c3ccc(Br)cc3c2-c2ccccc2)cc1Cl` the GI50 (T-47D breast) was 6.62 µM, the TGI (T-47D breast) was > 100 µM and the GI50 (CCRF-CEM leukemia) was 3.09 µM. The TGI (CCRF-CEM leukemia) was > 100 µM, the GI50 (SF-539 CNS) was 1.23 µM and the TGI (SF-539 CNS) was 4.55 µM. For the same compound, the GI50 (SR leukemia) was 1 µM, the TGI (SR leukemia) was > 100 µM and the GI50 (SK-MEL-28 melanoma) was 3.26 µM. The TGI (SK-MEL-28 melanoma) was > 100 µM, the GI50 (HCC-2998 colon) was 3.74 µM and the TGI (HCC-2998 colon) was > 100 µM. The GI50 (K-562 leukemia) was 0.502 µM, the TGI (K-562 leukemia) was > 100 µM and the GI50 (OVCAR-3 ovarian) was 0.607 µM. For the same compound, the TGI (OVCAR-3 ovarian) was 11.1 µM, the GI50 (MCF7 breast) was 0.447 µM and the TGI (MCF7 breast) was > 100 µM. The GI50 (SF-268 CNS) was 2.67 µM, the TGI (SF-268 CNS) was > 100 µM and the GI50 (ACHN renal) was 2.38 µM. The TGI (ACHN renal) was > 100 µM, the GI50 (OVCAR-4 ovarian) was 6.38 µM and the TGI (OVCAR-4 ovarian) was > 100 µM. For the same compound, the GI50 (SW-620 colon) was 2.88 µM, the TGI (SW-620 colon) was > 100 µM and the GI50 (MALME-3M melanoma) was 3.98 µM. The TGI (MALME-3M melanoma) was > 100 µM, the GI50 (SK-OV-3 ovarian) was 0.741 µM and the TGI (SK-OV-3 ovarian) was 22.8 µM. It also gave a GI50 (HT29 colon) of 1.07 µM, a TGI (HT29 colon) of 7.46 µM and a GI50 (SN12C renal) of 3.16 µM. The TGI (SN12C renal) was > 100 µM, the GI50 (UACC-257 melanoma) was 5.78 µM and the TGI (UACC-257 melanoma) was > 100 µM. It also gave a GI50 (IGROV1 ovarian) of 3.05 µM, a TGI (IGROV1 ovarian) of 30.7 µM and a GI50 (MDA-MB-435) of 0.346 µM. The TGI (MDA-MB-435) was 2.6 µM, the GI50 (HCT-116 colon) was 1.74 µM and the TGI (HCT-116 colon) was 10.1 µM. The GI50 (DU-145 prostate) was 3.23 µM, the TGI (DU-145 prostate) was 32.5 µM and the GI50 (RPMI-8226 leukemia) was 1.96 µM. For the same compound, the TGI (RPMI-8226 leukemia) was > 100 µM, the GI50 (EKVX NSCLC) was 4.49 µM and the TGI (EKVX NSCLC) was > 100 µM. For the same compound, the GI50 (SK-MEL-5 melanoma) was 1.73 µM, the TGI (SK-MEL-5 melanoma) was 4.36 µM and the GI50 (HOP-62 NSCLC) was 1 µM. For the same compound, the TGI (HOP-62 NSCLC) was 13.1 µM, the GI50 (COLO 205 colon) was 0.294 µM and the TGI (COLO 205 colon) was 0.728 µM. For the same compound, the GI50 (TK-10 renal) was 4.48 µM, the TGI (TK-10 renal) was > 100 µM and the GI50 (OVCAR-5 ovarian) was 3.28 µM. The TGI (OVCAR-5 ovarian) was 72.9 µM, the GI50 (HCT-15 colon) was 2.96 µM and the TGI (HCT-15 colon) was > 100 µM. It also gave a GI50 (NCI-H460 lung) of 2.79 µM, a TGI (NCI-H460 lung) of 10.7 µM and a GI50 (CAKI-1 renal) of 0.798 µM. The TGI (CAKI-1 renal) was 94.6 µM, the GI50 (HOP-92 NSCLC) was 9.72 µM and the TGI (HOP-92 NSCLC) was > 100 µM. For the same compound, the GI50 (RXF 393 renal) was 0.935 µM, the TGI (RXF 393 renal) was > 100 µM and the GI50 (MOLT-4 leukemia) was 3.3 µM. For the same compound, the TGI (MOLT-4 leukemia) was 26.7 µM, the GI50 (SNB-19 CNS) was 4.22 µM and the TGI (SNB-19 CNS) was > 100 µM. For the same compound, the GI50 (HL-60(TB) leukemia) was 1.52 µM, the TGI (HL-60(TB) leukemia) was 5.23 µM and the GI50 (UO-31 renal) was 2.21 µM. The TGI (UO-31 renal) was > 100 µM, the GI50 (MDA-MB-468 breast) was 0.895 µM and the TGI (MDA-MB-468 breast) was 5.54 µM. For the same compound, the GI50 (MDA-MB-231 breast) was 3.23 µM, the TGI (MDA-MB-231 breast) was 43.1 µM and the GI50 (LOX IMVI melanoma) was 1.61 µM. For the same compound, the TGI (LOX IMVI melanoma) was 40.7 µM, the GI50 (HS 578T breast) was 1.73 µM and the TGI (HS 578T breast) was 44.4 µM. It also gave a GI50 (NCI/ADR-RES ovarian) of 0.649 µM, a TGI (NCI/ADR-RES ovarian) of 4.58 µM and a GI50 (BT-549 breast) of 3.72 µM. The TGI (BT-549 breast) was 8.48 µM, the GI50 (M14 melanoma) was 2.12 µM and the TGI (M14 melanoma) was > 100 µM. The GI50 (A549 NSCLC) was 2.64 µM, the TGI (A549 NSCLC) was > 100 µM and the GI50 (786-0 renal) was 2.78 µM. It also gave a TGI (786-0 renal) of 41.9 µM, a GI50 (U251 CNS) of 3.39 µM and a TGI (U251 CNS) of 86.6 µM. The GI50 (SNB-75 CNS) was 0.74 µM, the TGI (SNB-75 CNS) was 26.9 µM and the GI50 (NCI-H226 lung) was 2.12 µM. For the same compound, the TGI (NCI-H226 lung) was 8.3 µM, the GI50 (A498 renal) was 11.1 µM and the TGI (A498 renal) was 53.7 µM. For the same compound, the GI50 (KM12 colon) was 2.79 µM, the TGI (KM12 colon) was > 100 µM and the GI50 (SF-295 CNS) was 1.2 µM. For the same compound, the TGI (SF-295 CNS) was 27.2 µM, the GI50 (OVCAR-8 ovarian) was 0.69 µM and the TGI (OVCAR-8 ovarian) was 11.5 µM. For the same compound, the GI50 (NCI-H522 lung) was 0.2 µM, the TGI (NCI-H522 lung) was 0.566 µM and the GI50 (PC-3 prostate) was 3.06 µM. For the same compound, the TGI (PC-3 prostate) was > 100 µM, the GI50 (NCI-H23 lung) was 3.72 µM and the TGI (NCI-H23 lung) was > 100 µM. For the same compound, the GI50 (UACC-62 melanoma) was 0.696 µM, the TGI (UACC-62 melanoma) was > 100 µM and the GI50 (SK-MEL-2 melanoma) was 1.54 µM. The TGI (SK-MEL-2 melanoma) was > 100 µM.
